Laboratory results taken from US20230372367A1 (GW Research Limited, priority 2020, published 2023).
Entries after “also recorded” stand apart in the source; their conditions may differ.

Key:
Type in all cases: in vivo, human
[1] = tested on: seizures associated with encephalocele; assay: Open label, expanded-access program: seizures overall; conditions: two patients
Description: (§1) Subjects were required to be on one or more AEDs at stable doses for a minimum of two weeks prior to baseline and to have stable vagus nerve stimulation (VNS) settings and ketogenic diet ratios for a minimum of four weeks prior to baseline.
(§2) A maximum dose of 50 mg/kg/day could be utilised for patients who were tolerating the medication but had not achieved seizure control; these patients had further weekly titration by 5 mg/kg/day.
(§3) Modifications were made to concomitant AEDs as per clinical indication.
(§4) Seizure frequency, intensity, and duration were recorded by caregivers in a diary during a baseline period of at least 28 days. Changes in seizure frequency relative to baseline were calculated after at least 2 weeks and at defined timepoints of treatment.
(§5) Patients may be defined as responders if they had more than 50% reduction in seizure frequency compared to baseline. The percent change in seizure frequency was calculated as follows: […]
(§6) The percent change of seizure frequency may be calculated for any time interval where seizure number has been recorded. For the purpose of this example the percent change of seizure frequency for the end of the treatment period was calculated as follows: […]

[2] = tested on: focal seizures with secondary generalisation in patients diagnosed with encephalocele; assay: Open label, expanded-access program: frequency of focal seizures with secondary generalisation; conditions: Patient 2, baseline 85.0
Description: as §1, §2, §3, §4, §5, §6

[3] = tested on: focal seizures with impairment in patients diagnosed with encephalocele; assay: Open label, expanded-access program: frequency of focal seizures with impairment; set-up: Seizure frequency, Focal with impairment: unit not given here
Description: as §1, §3, §4, §5, §6

[4] = tested on: absence seizures in patients diagnosed with encephalocele; assay: Open label, expanded-access program: absence seizure frequency; conditions: for Seizure frequency, Absence: baseline 6.8
Description: as §1, §2, §3, §4, §5, §6

## C=C(C)[C@@H]1CCC(C)=C[C@H]1c1c(O)cc(CCCCC)cc1O [CBD, cannabidiol]
[1]
  effect on number of seizures associated with encephalocele (in words): significantly reduce the number of seizures
[1]; absence and focal seizures with impairment, relative to baseline
  reductions in seizures over period of treatment: 20-100%
[2]; 2 weeks, CBD 10.0 mg/kg/day
  Seizure frequency, Focal with secondary generalisation: 90.0
[2]; 4 weeks, CBD 20.0 mg/kg/day
  Seizure frequency, Focal with secondary generalisation: 28.8
[2]; 8 weeks, CBD 25.0 mg/kg/day
  Seizure frequency, Focal with secondary generalisation: 90.2
[2]; 12 weeks, CBD 25.0 mg/kg/day
  Seizure frequency, Focal with secondary generalisation: 197.9
[2]; 16 weeks, CBD 25.0 mg/kg/day
  Seizure frequency, Focal with secondary generalisation: 212.8
[2]; 24 weeks, CBD 25.0 mg/kg/day
  Seizure frequency, Focal with secondary generalisation: 145.6
[2]; 48 weeks, CBD 46.0 mg/kg/day
  Seizure frequency, Focal with secondary generalisation: 143.1
[2]; 60 weeks, CBD 24.0 mg/kg/day
  Seizure frequency, Focal with secondary generalisation: 141.0
[2]; 72 weeks, CBD 25.0 mg/kg/day
  Seizure frequency, Focal with secondary generalisation: 148.6
[2]; 84 weeks, CBD 25.0 mg/kg/day
  Seizure frequency, Focal with secondary generalisation: 143.1
[2]; 96 weeks, CBD 25.0 mg/kg/day
  Seizure frequency, Focal with secondary generalisation: 117.8
[2]; 108 weeks, CBD 20.0 mg/kg/day
  Seizure frequency, Focal with secondary generalisation: 119.1
[2]; 120 weeks, CBD 20.0 mg/kg/day
  Seizure frequency, Focal with secondary generalisation: 146.6
[2]; 144 weeks, CBD 22.0 mg/kg/day
  Seizure frequency, Focal with secondary generalisation: 91.1
[3]; Patient 1, 4 weeks, CBD 25.0 mg/kg/day, baseline 92.5
  Seizure frequency, Focal with impairment: 104.0
[3]; Patient 1, 8 weeks, CBD 30.0 mg/kg/day, baseline 92.5
  Seizure frequency, Focal with impairment: 92.8
[3]; Patient 1, 12 weeks, CBD 25.0 mg/kg/day, baseline 92.5
  Seizure frequency, Focal with impairment: 98.0
[3]; Patient 1, 24 weeks, CBD 15.0 mg/kg/day, baseline 92.5
  Seizure frequency, Focal with impairment: 93.1
[3]; Patient 1, 60 weeks, CBD 15.0 mg/kg/day, baseline 92.5
  Seizure frequency, Focal with impairment: 95.0
[3]; Patient 2, 2 weeks, CBD 10.0 mg/kg/day, baseline 6.0
  Seizure frequency, Focal with impairment: 10.0
[3]; Patient 2, 4 weeks, CBD 20.0 mg/kg/day, baseline 6.0
  Seizure frequency, Focal with impairment: 6.8
[3]; Patient 2, 8 weeks, CBD 25.0 mg/kg/day, baseline 6.0
  Seizure frequency, Focal with impairment: 13.5
[3]; Patient 2, 12 weeks, CBD 25.0 mg/kg/day, baseline 6.0
  Seizure frequency, Focal with impairment: 25.1
[3]; Patient 2, 16 weeks, CBD 25.0 mg/kg/day, baseline 6.0
  Seizure frequency, Focal with impairment: 14.6
[3]; Patient 2, 24 weeks, CBD 25.0 mg/kg/day, baseline 6.0
  Seizure frequency, Focal with impairment: 12.9
[3]; Patient 2, 48 weeks, CBD 46.0 mg/kg/day, baseline 6.0
  Seizure frequency, Focal with impairment: 14.5
[3]; Patient 2, 60 weeks, CBD 24.0 mg/kg/day, baseline 6.0
  Seizure frequency, Focal with impairment: 18.1
[3]; Patient 2, 72 weeks, CBD 25.0 mg/kg/day, baseline 6.0
  Seizure frequency, Focal with impairment: 13.4
[3]; Patient 2, 84 weeks, CBD 25.0 mg/kg/day, baseline 6.0
  Seizure frequency, Focal with impairment: 9.8
[3]; Patient 2, 96 weeks, CBD 25.0 mg/kg/day, baseline 6.0
  Seizure frequency, Focal with impairment: 22.9
[3]; Patient 2, 108 weeks, CBD 20.0 mg/kg/day, baseline 6.0
  Seizure frequency, Focal with impairment: 9.4
[3]; Patient 2, 120 weeks, CBD 20.0 mg/kg/day, baseline 6.0
  Seizure frequency, Focal with impairment: 11.3
[3]; Patient 2, 144 weeks, CBD 22.0 mg/kg/day, baseline 6.0
  Seizure frequency, Focal with impairment: 4.8
[3]; Patient 2, treated for 144 weeks, relative to baseline
  reduction in focal seizures with impairment over the treatment period: 20%
[3]; patients with encephalocele
  effect on frequency of focal seizures with impairment (in words): effective in reducing the frequency; also recorded: significant reduction
[4]; Patient 1, 2 weeks, CBD 15.0 mg/kg/day
  Seizure frequency, Absence: 6.0
[4]; Patient 1, 4 weeks, CBD 25.0 mg/kg/day
  Seizure frequency, Absence: 8.0
[4]; Patient 1, 8 weeks, CBD 30.0 mg/kg/day
  Seizure frequency, Absence: 0
[4]; Patient 1, 12 weeks, CBD 25.0 mg/kg/day
  Seizure frequency, Absence: 0
[4]; Patient 1, 24 weeks, CBD 15.0 mg/kg/day
  Seizure frequency, Absence: 1.6
[4]; Patient 1, 36 weeks, CBD 10.0 mg/kg/day
  Seizure frequency, Absence: 0
[4]; Patient 1, 48 weeks, CBD 10.0 mg/kg/day
  Seizure frequency, Absence: 0
[4]; Patient 1, 60 weeks, CBD 15.0 mg/kg/day
  Seizure frequency, Absence: 0
[4]; Patient 1, 84 weeks, CBD 15.0 mg/kg/day
  Seizure frequency, Absence: 0
[4]; Patient 1, after 36 weeks of treatment
  seizure freedom from absence seizures: completely seizure free from absence seizures
[4]; Patient 1, treated for 144 weeks, relative to baseline
  reduction in absence seizures over the treatment period: 100%
[4]; patients with encephalocele
  effect on frequency of absence seizures (in words): effective in reducing the frequency; also recorded: significant reduction
